From US20090048328A1, “Compound Comprising Prodigiosin From Serratia Macescence B-1231 Kctc 0386Bp for Prevention and Treatment of Acute Graft-Versus-Host Disease” (priority 2005, published 2009)
“Also recorded” adds a separate entry of the source.

How the values were obtained:
[1] = system: acute graft-versus-host disease; assay: Mouse survival in acute graft-versus-host disease after bone marrow transplantation; type: in vivo, Balb/c mouse; conditions: 1 mg/kg, peritoneal injections every other day
From the text: (§1) To induce acute graft-versus-host disease, bone marrow cells (5×10^7 cells) and spleen cells (1×10^7 cells) of the C57BL/6 mouse were transplanted to the Balb/c mouse, which had been irradiated and had lost immune function.

[2] = system: acute graft-versus-host disease; type: in vivo, Balb/c mouse; conditions: 1 mg/kg, peritoneal injections every other day; weight loss from 2nd to 6th day, regain from 7th day; control mice lost weight up to 9th day and died
From the text: as §1

T-cells [3] = assay: ConA-induced T-cell proliferation, [3H]-thymidine incorporation; type: cell-based, C57BL/6 mouse; conditions: 1 μg/ml ConA; 3, 10, 30 ng/ml compound
Protocol: (§2) T-cells were separated from the spleen of the C57BL/6 mouse for the experiment. 1 μg/ml concanavalin A (ConA) was used to generate the proliferation of T-cells, and 1 μg/ml lypopolysaccaride induced proliferation of the B-cells. The prodigiosin separated in Execution Example 1 was melted in dimethyl sulfoxide (DMSO) and was added to the culture medium in a manner to achieve a final concentration of 3, 10, 30 ng/ml. After 60 hours of cultivation, [^3H]-thymidine was added to the culture medium with a concentration of 1 μCi/well. After 12 hours, the cells were collected and the amount of radioactivity in the DNA was measured.
T-cells were separated from the spleen of the C57BL/6 mouse for the experiment. 1 μg/ml ConA and 10 unit/ml IL-2 were used to generate the proliferation of T-cells. In the control group, 1 μg/ml ConA induced the proliferation of T-cells. […] After 12 hours, the cells were collected and the amount of radioactivity in the DNA was measured.
T-cells were separated from the spleen of the C57BL/6 mouse for the experiment. […] After 12 hours, the cells were collected and the amount of radioactivity in the DNA was measured. […]
Prodigiosin was melted in DMSO and added to the culture medium in a manner to achieve a final concentration of 3, 10, 30 ng/ml. […] After 12 hours, the cells were collected and the amount of radioactivity in the DNA was measured. […]

B-cells = assay: Lipopolysaccharide-induced B-cell proliferation, [3H]-thymidine incorporation; type: cell-based, C57BL/6 mouse; conditions: 1 μg/ml lipopolysaccharide; 3, 10, 30 ng/ml compound
Protocol: as §2

IL-2 mRNA = assay: Expression of IL-2 mRNA in ConA-activated T-cells, RT-PCR; type: cell-based, C57BL/6 mouse; conditions: 1 μg/ml ConA, 4 hours, 3, 10, 30 ng/ml compound
Protocol: T-cells were separated from the spleen of the C57BL/6 mouse for the experiment. 1 μg/m ConA was used to activate the T-cells. […]. After 4 hours of cultivation, the cells were collected. After separating the RNA from the cells, the degree of expression of IL-2 mRNA was measured through RT-PCR (reverse transcription-polymerase chain reaction).

[4] = system: IL-2 receptors (IL-2R alpha); assay: Expression of IL-2 receptor (IL-2R alpha) mRNA in ConA-activated T-cells, RT-PCR; type: cell-based, C57BL/6 mouse; conditions: 1 μg/ml ConA, 4 hours, 3, 10, 30 ng/ml compound
T-cells [5] = assay: T-cell proliferation induced by ConA plus added IL-2, [3H]-thymidine incorporation; type: cell-based, C57BL/6 mouse; conditions: 1 μg/ml ConA and 10 unit/ml IL-2; 3, 10, 30 ng/ml compound
Protocol: (§3) T-cells were separated from the spleen of the C57BL/6 mouse for the experiment. 1 μg/ml ConA and 10 unit/ml IL-2 were used to generate the proliferation of T-cells. In the control group, 1 μg/ml ConA induced the proliferation of T-cells. Prodigiosin was melted in DMSO and added to the culture medium in a manner to achieve a final concentration of 3, 10, 30 ng/ml. After 60 hours of cultivation, [^3H]-thymidine was added to the culture medium with a concentration of 1 μCi/well. After 12 hours, the cells were collected and the amount of radioactivity in the DNA was measured.
as §3, with “Prodigiosin was melted in DMSO and added to the culture medium in a manner to achieve a final concentration of 3, 10, 30 ng/ml.” left out

IL-2 dependent T-cells = assay: IL-2-dependent T-cell proliferation (ConA pre-treated cells), [3H]-thymidine incorporation; type: cell-based, C57BL/6 mouse; conditions: cells pre-treated with 1 μg/ml ConA 48 hours, washed, 10 unit/ml IL-2; 3, 10, 30 ng/ml compound
Protocol: (§4) In order to measure IL-2 dependent T-cell proliferation, T-cells separated from the spleen of the mouse were treated with 1 μg/ml ConA for 48 hours. Then, the cells were washed three times to get rid of all ConA for further experiment. […] 10 unit/ml IL-2 was added to the pre-treated cells to induce T-cell proliferation (IL-2-dependent T cell proliferation).
Prodigiosin was melted in DMSO and added to the culture medium in a manner to achieve a final concentration of 3, 10, 30 ng/ml. After 60 hours of cultivation, [^3H]-thymidine was added to the culture medium with a concentration of 1 μCi/well. After 12 hours, the cells were collected and the amount of radioactivity in the DNA was measured.
as §4, with “all the” for “all”, “T-cell” for “T cell”
After 60 hours of cultivation, [^3H]-thymidine was added to the culture medium with a concentration of 1 μCi/well. After 12 hours, the cells were collected and the amount of radioactivity in the DNA was measured.

SMILES: CCCCCC1=C/C(=C/c2[nH]c(-c3ccc[nH]3)cc2OC)N=C1C [prodigiosin]
- Balb/c mice died six days after the cell transplantation ([1]; control group 50% died by day 6): 35%
- mice survived through to the end of the experiment ([1]; observed for 14 days, all control mice died by the 10th day): 65%
- changes in weight of the mice [2]: recovered normal weight by the 14th day
- effect on proliferation of T-cells induced by ConA (T-cells [3]): selectively suppressed the proliferation of T-cells; also recorded: suppressed T-cells proliferated by ConA
- effect on proliferation of B-cells (B-cells): could not suppress the proliferation of B-cells
- effect on expression of IL-2 mRNA (IL-2 mRNA): did not influence the expression of IL-2 mRNA
- effect on expression of IL-2 receptor mRNA [4]: efficiently suppressed the expression of IL-2 mRNA
- effect of added IL-2 on the suppression of T-cell proliferation (T-cells [5]): did not suppress the excessive amount of IL-2 that was added from the outside
- effect on IL-2-dependent T-cell proliferation (IL-2 dependent T-cells): did not suppress the T-cell proliferation by IL-2
